Assay results reported in patent US8193191B2, “Urotensin II receptor antagonists” (Janssen Pharmaceutica N.V., priority 2006, dated 2012).
Where two headings read alike, the source gives them in different places.

Experiments:
[1] = biological target: T1, endogenous human UII receptor (Homo sapiens, UniProt Q9UKP6); assay: Human Radioligand Binding Assay ((^125I)-U-II binding to human skeletal muscle myoblasts)
T1 sequence (Q9UKP6 1-389): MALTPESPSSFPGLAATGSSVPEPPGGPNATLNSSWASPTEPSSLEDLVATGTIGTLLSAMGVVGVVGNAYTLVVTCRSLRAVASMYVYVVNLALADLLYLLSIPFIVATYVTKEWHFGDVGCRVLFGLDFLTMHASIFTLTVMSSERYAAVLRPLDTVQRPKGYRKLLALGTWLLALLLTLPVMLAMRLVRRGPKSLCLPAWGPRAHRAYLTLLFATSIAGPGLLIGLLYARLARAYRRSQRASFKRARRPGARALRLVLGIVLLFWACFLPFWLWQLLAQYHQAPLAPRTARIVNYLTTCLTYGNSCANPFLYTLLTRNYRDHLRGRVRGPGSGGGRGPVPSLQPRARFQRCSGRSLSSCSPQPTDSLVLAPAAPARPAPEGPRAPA

[2] = biological target: T2, Human UII receptor, 6D9 human rhabdomyosarcoma cells (Homo sapiens, UniProt Q9UKP6); assay: Human UII Calcium Mobilization Assay; assay type: cell-based; settings: average value, FLIPR TETRA, read-out: Human UII Ca^+ Mobilization Average IC50
T2 construct: 6D9: isolated by dilution subcloning of RMS13 cells, ATCC® Number: CRL-2061; host or cells: 6D9 human rhabdomyosarcoma cells (subclone of RMS13)
T2 sequence (Q9UKP6 1-389): T1 sequence (Q9UKP6 1-389)
Method in brief: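 FLIPR calcium responses were recorded for 4 minutes after room-temperature addition of test antagonist and U-II, in dye-loaded human 6D9 cells (37° C, 45 min; HBSS/HEPES with probenecid 1.25 mM). Compounds serially diluted in HBSS/HEPES, up to 0.1% DMSO; curves gave IC50 and EC50.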

[3] = biological target: T3, rat GPR14 (U-II receptor) (Rattus norvegicus, UniProt P49684); assay: Rat UII Calcium Mobilization FLIPR Assay; assay type: cell-based; settings: average value for the compound tested; read-out: Rat UII FLIPR Average IC50
T3 construct: expressed in transfected cells
T3 sequence (P49684 1-386): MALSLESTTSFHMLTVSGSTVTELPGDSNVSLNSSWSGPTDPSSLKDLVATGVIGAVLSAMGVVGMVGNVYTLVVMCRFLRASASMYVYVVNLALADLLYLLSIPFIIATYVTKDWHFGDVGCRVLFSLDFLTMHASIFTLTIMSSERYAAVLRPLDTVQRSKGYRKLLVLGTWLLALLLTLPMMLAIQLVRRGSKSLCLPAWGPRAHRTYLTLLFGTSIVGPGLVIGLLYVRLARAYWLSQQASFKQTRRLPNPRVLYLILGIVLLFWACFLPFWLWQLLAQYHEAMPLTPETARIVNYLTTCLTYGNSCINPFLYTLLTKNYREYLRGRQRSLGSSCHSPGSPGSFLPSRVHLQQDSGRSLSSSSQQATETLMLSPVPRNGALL
Method in brief: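 Fluorescent calcium signals were recorded at room temperature (23° C) by FLIPR. Stable rat U-II receptor CHO lines had been dye-loaded for 1 h at 37° C in pH 7.4 HBSS containing 20 mM HEPES, 0.1% BSA and 2.5 mM probenecid.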

Row | Structure (SMILES) | Ki [1] [nM] | IC50 [2] [nM] | IC50 [3] [nM] | Ki ([1]; read-out: Human UII Average Binding Ki, average value, (^125I)-U-II binding to human skeletal muscle myoblasts (HSMM), 25° C., 3 h) [nM]
1 | COc1ccc(C(CCCNS(=O)(=O)c2cnoc2C)N2C(=O)c3cccc(N4CCN([C@H](C)c5ccccc5)CC4)c3C2=O)cc1OC (stereo partly drawn) [Cpd 108, 5-methyl-isoxazole-4-sulfonic acid (4-(3,4-dimethoxy-phenyl)-4-{1,3-dioxo-4-[4-(1R)-(1-phenyl-ethyl)-piperazin-1-yl]-1,3-dihydro-isoindol-2-yl}-butyl)-amide] | 31 | 46 | 14 | –
2 | COc1ccc(C(CCCNS(=O)(=O)CS(C)(=O)=O)N2C(=O)c3cccc(N4CCN([C@H](C)c5ccccc5)CC4)c3C2=O)cc1OC (stereo partly drawn) [Cpd 110, N-(4-(3,4-dimethoxy-phenyl)-4-{1,3-dioxo-4-[4-(1R)-(1-phenyl-ethyl)-piperazin-1-yl]-1,3-dihydro-isoindol-2-yl}-butyl)-C-methanesulfonyl-methanesulfonamide] | 25 | 250 | 19 | –
3 | COc1ccc([C@@H](CCCNC(=O)c2cc(C)c(C)o2)N2C(=O)c3cccc(N4CCN([C@H](C)c5ccccc5)CC4)c3C2=O)cc1OC [Cpd 162, (R)-4,5-dimethyl-furan-2-carboxylic acid (4-(3,4-dimethoxy-phenyl)-4-{1,3-dioxo-4-[4-(1R)-(1-phenyl-ethyl)-piperazin-1-yl]-1,3-dihydro-isoindol-2-yl}-butyl)-amide] | 170 | 430 | 35 | –
4 | COc1ccc([C@@H](CCCNC(=O)COC(C)(C)C)N2C(=O)c3cccc(N4CCN([C@H](C)c5ccccc5)CC4)c3C2=O)cc1OC [Cpd 213, (R)-2-tert-butoxy-N-(4-(3,4-dimethoxy-phenyl)-4-{1,3-dioxo-4-[4-(1R)-(1-phenyl-ethyl)-piperazin-1-yl]-1,3-dihydro-isoindol-2-yl}-butyl)-acetamide] | 54 | 730 | 17 | –
5 | COc1ccc([C@@H](CCNC(=O)c2csc(C)n2)N2C(=O)c3cccc(N4CCN([C@H](C)c5ccccc5)CC4)c3C2=O)cc1OC [Cpd 211, (R)-2-methyl-thiazole-4-carboxylic acid (3-(3,4-dimethoxy-phenyl)-3-{1,3-dioxo-4-[4-(1R)-(1-phenyl-ethyl)-piperazin-1-yl]-1,3-dihydro-isoindol-2-yl}-propyl)-amide] | 89 | 1200 | 19 | –
6 | COc1ccc([C@@H](CCCNC(=O)c2ccccn2)N2C(=O)c3cccc(N4CCN([C@H](C)c5ccccc5)CC4)c3C2=O)cc1OC [Cpd 150, (R)-pyridine-2-carboxylic acid (4-(3,4-dimethoxy-phenyl)-4-{1,3-dioxo-4-[4-(1R)-(1-phenyl-ethyl)-piperazin-1-yl]-1,3-dihydro-isoindol-2-yl}-butyl)-amide] | 74 | 860 | 38 | –
7 | COc1ccc([C@@H](CCCNS(=O)(=O)c2cccs2)N2C(=O)c3cccc(OCCCN(C)C)c3C2=O)cc1OC [Cpd 224, (R)-thiophene-2-sulfonic acid {4-(3,4-dimethoxy-phenyl)-4-[4-(3-dimethylamino-propoxy)-1,3-dioxo-1,3-dihydro-isoindol-2-yl]-butyl}-amide] | > 300 | 2000 | 340 | –
8 | COc1ccc(C(CCCNS(=O)(=O)Cc2ccccc2)N2C(=O)c3cccc(N4CCN([C@H](C)c5ccccc5)CC4)c3C2=O)cc1OC (stereo partly drawn) [Cpd 117, N-(4-(3,4-dimethoxy-phenyl)-4-{1,3-dioxo-4-[4-(1R)-(1-phenyl-ethyl)-piperazin-1-yl]-1,3-dihydro-isoindol-2-yl}-butyl)-C-phenyl-methanesulfonamide] | 32 | 700 | 58 | –
9 | COc1ccc([C@@H](CCCNC(=O)C2CCC2)N2C(=O)c3cccc(N4CCN([C@H](C)c5ccccc5)CC4)c3C2=O)cc1OC [Cpd 178, (R)-cyclobutanecarboxylic acid (4-(3,4-dimethoxy-phenyl)-4-{1,3-dioxo-4-[4-(1R)-(1-phenyl-ethyl)-piperazin-1-yl]-1,3-dihydro-isoindol-2-yl}-butyl)-amide] | 22 | 560 | 13 | –
10 | COc1ccc(C(CCCNS(=O)(=O)c2sc(NC(C)=O)nc2C)N2C(=O)c3cccc(N4CCN([C@H](C)c5ccccc5)CC4)c3C2=O)cc1OC (stereo partly drawn) [Cpd 97, N-[5-(4-(3,4-dimethoxy-phenyl)-4-{1,3-dioxo-4-[4-(1R)-(1-phenyl-ethyl)-piperazin-1-yl]-1,3-dihydro-isoindol-2-yl}-butylsulfamoyl)-4-methyl-thiazol-2-yl]-acetamide] | 180 | 700 | 63 | –
11 | CCN1CCN(c2cccc3c2C(=O)N([C@H](CCCNC(=O)C2CCC2)c2ccc(OC)c(OC)c2)C3=O)CC1 [Cpd 202, (R)-cyclobutanecarboxylic acid {4-(3,4-dimethoxy-phenyl)-4-[4-(4-ethyl-piperazin-1-yl)-1,3-dioxo-1,3-dihydro-isoindol-2-yl]-butyl}-amide] | 150 | 960 | 120 | –
12 | COc1ccc([C@@H](CCCNS(=O)(=O)c2c(C)n[nH]c2C)N2C(=O)c3cccc(N4CCN([C@H](C)c5ccccc5)CC4)c3C2=O)cc1OC [Cpd 125, (R)-3,5-dimethyl-1H-pyrazole-4-sulfonic acid (4-(3,4-dimethoxy-phenyl)-4-{1,3-dioxo-4-[4-(1R)-(1-phenyl-ethyl)-piperazin-1-yl]-1,3-dihydro-isoindol-2-yl}-butyl)-amide] | – | 47 | 11 | 13

More lines, main results first:

Row | Ki [1] [nM] | IC50 [2] [nM] | IC50 [3] [nM] | Structure (SMILES) | Ki ([1]; read-out: Human UII Average Binding Ki, average value, (^125I)-U-II binding to human skeletal muscle myoblasts (HSMM), 25° C., 3 h) [nM]
13 | > 300 | 4100 | 410 | CCN1CCN(c2cccc3c2C(=O)N(C(CC2CCN(Cc4ccccc4)CC2)c2ccc(OC)c(OC)c2)C3=O)CC1 (stereo not drawn) [Cpd 232, 2-[2-(1-benzyl-piperidin-4-yl)-1-(3,4-dimethoxy-phenyl)-ethyl]-4-(4-ethyl-piperazin-1-yl)-isoindole-1,3-dione] | –
14 | 120 | 500 | 12 | COc1ccc(C(CCCNS(N)(=O)=O)N2C(=O)c3cccc(N4CCN([C@H](C)c5ccccc5)CC4)c3C2=O)cc1OC (stereo partly drawn) [Cpd 122, N′-[(4-(3,4-dimethoxy-phenyl)-4-{1,3-dioxo-4-[4-(1R)-(1-phenyl-ethyl)-piperazin-1-yl]-1,3-dihydro-isoindol-2-yl}-butyl)]-sulfamide] | –
15 | 19 | 300 | 27 | COc1ccc(C(CCCNS(=O)(=O)c2cccc3cccnc23)N2C(=O)c3cccc(N4CCN([C@H](C)c5ccccc5)CC4)c3C2=O)cc1OC (stereo partly drawn) [Cpd 109, quinoline-8-sulfonic acid (4-(3,4-dimethoxy-phenyl)-4-{1,3-dioxo-4-[4-(1R)-(1-phenyl-ethyl)-piperazin-1-yl]-1,3-dihydro-isoindol-2-yl}-butyl)-amide] | –
16 | 320 | 1700 | > 100 | COc1ccc([C@@H](CCCNS(=O)(=O)c2cccs2)N2C(=O)c3cccc(OCCN(C)C)c3C2=O)cc1OC [Cpd 229, (R)-thiophene-2-sulfonic acid {4-(3,4-dimethoxy-phenyl)-4-[4-(2-dimethylamino-ethoxy)-1,3-dioxo-1,3-dihydro-isoindol-2-yl]-butyl}-amide] | –
17 | 210 | > 3000 | 49 | CCN1CCN(c2cccc3c2C(=O)N([C@H](CCCOCc2ccccc2)c2ccc(OC)c(OC)c2)C3=O)CC1 [Cpd 201, (R)-2-[4-benzyloxy-1-(3,4-dimethoxy-phenyl)-butyl]-4-(4-ethyl-piperazin-1-yl)-isoindole-1,3-dione] | –
18 | 42 | 350 | 18 | COc1ccc(C(CCCNS(=O)(=O)c2cn(C)cn2)N2C(=O)c3cccc(N4CCN([C@H](C)c5ccccc5)CC4)c3C2=O)cc1OC (stereo partly drawn) [Cpd 98, 1-methyl-1H-imidazole-4-sulfonic acid (4-(3,4-dimethoxy-phenyl)-4-{1,3-dioxo-4-[4-(1R)-(1-phenyl-ethyl)-piperazin-1-yl]-1,3-dihydro-isoindol-2-yl}-butyl)-amide] | –
